Reference: patent US20240100018A1, “COMPOUNDS FOR THE TREATMENT OF A DISEASE OR DISORDER, METHODS FOR IDENTIFYING SAID COMPOUNDS” (priority 2021, published 2024)
pEC50: −log10 of the molar value. Entries after “also recorded” stand apart in the source; their conditions may differ. Structures can show the parent of a compound that is named as a salt. Where two headings read alike, the source gives them in different places.

Key:
[1] = test system: Vero-E6 cells; assay: Toxicity by reduced cell count in the viral inhibition assay; details: for host cell toxicity (reduced cell count): concentration not given
[2] = test system: SARS-CoV-2 Isolate USA-WA1/2020; assay: In vitro viral inhibition assay in Vero-E6 cells (spike immunofluorescence); type: cell-based
[3] = human, in vivo; cited from earlier work
[4] = test system: HEK293T cells transfected with ACE2 and TMPRSS2, SARS-CoV-2 spike-mediated cell fusion; assay: cells; type: cell-based, human
[5] = test system: Calu-3 lung cancer cells, SARS-CoV-2 spike-mediated cell fusion; type: cell-based, human
[6] = test system: HEK293 cells
[7] = test system: Vero-E6 cells
[8] = test system: Covid-19; details: in vivo; cited from earlier work
[9] = summary call Active / Not Tested
[10] = summary call Active / Not Tested, cell line not given
[11] = HEK293 syncytia assay, dose-response

CC(=O)c1c(O)c(C)c(O)c(Cc2c(O)c3c(c(C(=O)/C=C/c4ccccc4)c2O)OC(C)(C)C=C3)c1O [rottlerin, Rottlerin]
host cell toxicity (reduced cell count) ([1]; Vero-E6): dose-limiting toxicity
host cell toxicity (reduced cell count) ([1]; Vero-E6, listed as R077): dose-limiting toxicity as evidenced by reduced cell count
antiviral activity / inhibition of SARS-CoV-2 infection in Vero-E6 cells ([2]; […], concentration not stated, listed as Rottlerin): inhibited viral infection
Viral Entry Assay [2, 9]: Active

C[C@]1(O)C[C@@H](c2nc(-c3ccc4ccc(-c5ccccc5)nc4c3)c3c(N)nccn32)C1 [linsitinib, Linsitinib]
Cmax [3]: 5 to 10 µM
inhibition of syncytia formation (cell fusion) [4]: impaired viral entry; also recorded: particularly effective; also recorded: most potent agent; also recorded: dose-responsive inhibition of syncytia formation; also recorded: complete inhibition of cell fusion; also recorded: substantially reduced spike-protein-dependent syncytia formation
pEC50 ([4]; Homo sapiens, HEK-293T, cell fusion (syncytia) assay): 4.60
inhibition of syncytia formation (cell fusion) ([4]; listed as Linsitinib): highest inhibitory activity
inhibition of syncytia formation (cell fusion) ([4]; listed as linisitinib): highest inhibitory activity
Syncytia Assay [4, 10]: Active

N=C(N)c1ccc2cc(OC(=O)c3ccc(N=C(N)N)cc3)ccc2c1 [nafamostat]
inhibition of syncytia formation (cell fusion) [5]: prevented syncytia formation
cell loss / cytotoxicity (total GFP) [6, 11]: did not mirror cell loss

CO[C@H]1C[C@@H]2CC[C@@H](C)[C@@](O)(O2)C(=O)C(=O)N2CCCC[C@H]2C(=O)O[C@H]([C@H](C)C[C@@H]2CC[C@@H](OC(=O)C(C)(CO)CO)[C@H](OC)C2)CC(=O)[C@H](C)/C=C(\C)[C@@H](O)[C@@H](OC)C(=O)[C@H](C)C[C@H](C)/C=C/C=C/C=C/1C [temsirolimus, Temsirolimus]
antiviral activity / inhibition of SARS-CoV-2 infection in Vero-E6 cells ([2]; […], concentration not stated): Qualitatively similar results to salmeterol
Viral Entry Assay [2, 9]: Active

Cc1cc(C)c(/C=C2\C(=O)Nc3ccccc32)[nH]1 [semaxanib, Semaxanib]
Syncytia Assay [4, 10]: Active

OCc1cc(C(O)CNCCCCCCOCCCCc2ccccc2)ccc1O (centres unmarked) [salmeterol, Salmeterol]
host cell toxicity (reduced cell count) [7]: without apparent host cell toxicity
Syncytia Assay [4]: Active
inhibition of syncytia formation (cell fusion) [4]: had inhibitory activity in the cell fusion assay and full and not borne out by syncytia formation experiments with either HEK293T or Calu-3 cells, except at high concentration
potency in the cell fusion assay relative to the viral infection assay [4]: at least two orders of magnitude less potent
inhibition of syncytia formation (cell fusion) [5]: not borne out by syncytia formation experiments with either HEK293T or Calu-3 cells, except at high concentration
Viral Entry Assay [2]: Active
antiviral activity / inhibition of SARS-CoV-2 infection in Vero-E6 cells [2]: exhibited antiviral activities; also recorded: prevented viral infection; also recorded: particularly strong inhibitory activities; also recorded: particularly effective; also recorded: can block in vitro SARS-CoV-2 replication at clinically relevant concentrations
antiviral effect on spike-expressing cell population [2]: reduced the median of the spike-expressing population; also recorded: greater antiviral effect on the entire population
spike-positive cells [2]: ~14%
cell loss / cytotoxicity (total GFP) [6]: mirrored by cell loss

CN(C)CCCN1c2ccccc2CCc2ccccc21 [imipramine, Imipramine hydrochloride]
Syncytia Assay [4]: Active
inhibition of syncytia formation (cell fusion) ([4]; hydrochloride): impaired viral entry; also recorded: inhibited syncytia formation

CCCCCCc1ccc(O)cc1O [hexylresorcinol, Hexylresorcinol]
Syncytia Assay [4, 10]: Active
cell loss / cytotoxicity (total GFP) [6, 11]: mirrored by cell loss

CN(C)CCC(c1ccc(Br)cc1)c1ccccn1 (centres unmarked) [brompheniramine, Brompheniramine]
inhibition of syncytia formation (cell fusion) [4]: impaired viral entry; also recorded: to a lesser extent, brompheniramine, showed dose-responsive inhibition of syncytia formation; also recorded: inhibited syncytia formation
Syncytia Assay [4, 10]: Active
cell loss / cytotoxicity (total GFP) [6, 11]: did not mirror cell loss

Dec-RVKR-CMK
inhibition of syncytia formation (cell fusion) ([4]; HEK293T acceptor cells with ACE2 and TMPRSS2, 1-2 h pretreatment, 4 h co-culture): prevented syncytia formation; also recorded: similarly potent in both cell types; also recorded: dose-responsive inhibition of syncytia formation
inhibition of syncytia formation (cell fusion) ([5]; Calu-3 acceptor cells, 1-2 h pretreatment, 4 h co-culture): prevented syncytia formation; also recorded: seemingly larger maximal magnitude of inhibition
cell loss / cytotoxicity (total GFP) [6, 11]: did not mirror cell loss

O=C1[C@H](CC[C@H](O)c2ccc(F)cc2)[C@@H](c2ccc(O)cc2)N1c1ccc(F)cc1 [ezetimibe, Ezetimibe]
cell numbers ([1]; 25 μM, Vero-E6): reduction in cell numbers was also observed
activity in the cell fusion assay [4]: inactive
inhibition of syncytia formation (cell fusion) [4]: impaired viral entry; also recorded: had inhibitory activity in the cell fusion assay; also recorded: inhibited both viral infection and cell fusion
potency in the cell fusion assay relative to the viral infection assay [4]: lower potency in the cell fusion assay
Syncytia Assay [4, 10]: Active
reduction of spike protein-expressing populations ([2]; 25 μM (highest concentration studied), Vero-E6): reduced spike protein-expressing populations only at the highest concentration studied
Viral Entry Assay [2, 9]: Active

CCC(=O)N1CCN(c2ccc(-n3c(=O)ccc4cnc5ccc(-c6cnc7ccccc7c6)cc5c43)cc2C(F)(F)F)CC1 [torin-1, Torin-1]
host cell toxicity (reduced cell count) [7]: dose-limiting toxicity as evidenced by reduced cell count
toxicity ([1]; 100 nM): toxic
antiviral activity / inhibition of SARS-CoV-2 infection in Vero-E6 cells ([2]; […], concentration not stated): Qualitatively similar results to salmeterol
Viral Entry Assay [2, 9]: Active

COCCCC/C(=N\OCCN)c1ccc(C(F)(F)F)cc1 [fluvoxamine]
decrease of Covid-19 deaths [8]: 90%
